The subject of one test is isolated skeletal muscle. In words: 2-DG uptake in muscles isolated from NC-fed and HFD-fed mice. The arrangement: species or system mouse. To be noted: for Raio: 2-DG uptake in isolated muscles; for Raio / 2DOG Trn / IC 2DOG: individual muscles; for 2DOG Trn / IC 2DOG: isolated muscles. As to the method: Fig. 8 Acute and chronic DS20060511 treatment improves glucose intolerance in HFD-fed and db/db mice. a Blood glucose and plasma insulin levels during an oral GTT in normal-chow (NC)- and high-fat diet (HFD)-fed mice (n = 5). Vehicle or DS20060511 (30 mg kg^−1) was given orally 15 min before the oral glucose administration (1.5 g kg^−1). Values shown are means ± SEM. *P < 0.05, **P < 0.01, ***P < 0.001 vs. the HFD vehicle by the t-test. b Effects of 10 μM DS20060511 and 100 nM insulin on 2-DG uptake in muscles isolated from NC-fed (n = 6) and HFD-fed (n = 5) mice. Values shown are means ± SEM. **P < 0.01 by one-way ANOVA followed by Tukey’s test. c, d Changes in the blood glucose levels and AUC on day 1 and day 28 during refeeding (n = 6) in db/db mice treated chronically with DS20060511 (10 mg kg^−1 day^−1). Values shown are means ± SEM. *P < 0.05, **P < 0.01, ***P < 0.001 vs. vehicle by the t-test. e Change of the HbA1c levels in the db/db (n = 6) mice at 4 weeks. Values shown are means ± SEM. *P < 0.05 vs. vehicle by the t-test.
C57BL/6 and db/db mice were purchased from CLEA Japan, Tokyo, Japan. GLUT4- knockout mice were generated at RIKEN BioResource Center, Tsukuba, Japan, according to a previously described method. eNOS-knockout mice were kindly provided by Dr. Masato Tsutsui[41],[42]. The mice were group-housed under controlled illumination (12:12 h light-dark cycle) and temperature (23 ± 2 °C) conditions and given free access to normal chow and water, unless otherwise specified. The HFD-fed obese mice were prepared by feeding C57BL/6 mice a HFD for at least 8 weeks from 6 weeks of age. […] Male mice were used for all the experiments in this study. The animal care and experimental procedures used in the study were approved by The University of Tokyo Animal Care Committee (Approval number: 27-3), and the study was carried out in accordance with the Animal Experimentation Guidelines of Daiichi Sankyo Co., Ltd (Approved number: 20000411).
(§1) The soleus or EDL muscle was removed from anesthetized mice (isoflurane anesthesia) that had been denied access to food overnight, and incubated with oxygenated (95% O2/5% CO2) Krebs-Henseleit Bicarbonate (KHB) buffer (118.1 mM NaCl, 4.7 mM KCl, 1.1 mM KH2PO4, 1.2 mM MgSO4, 2.5 mM CaCl2, and 25 mM NaHCO3, pH7.4) in the presence of 11.1 mM glucose at 37 °C. The muscle specimens were then treated with the indicated concentrations of the compounds in KHB buffer containing 11.1 mM glucose and 8 mM mannitol for 10 min at 37 °C. Thereafter, the muscles were rinsed with KHB buffer containing 8 mM mannitol and the compounds for 5 min at 37 °C. Lastly, the muscles were treated with the compounds in KHB buffer containing 1 mM 2-DG (with 0.3 μCi mL^−1 [^3H]-2-DG) and 8 mM mannitol (with 0.03 μCi mL^−1 [^14C]-mannitol) for 10 min at 37 °C. After the muscle specimens were washed, they were lysed with 1 N NaOH and neutralized with 1 N HCl. The ^14C- and ^3H-specific activities were counted with a liquid scintillation counter. The specific uptake of 2-DG was calculated by subtracting the nonspecific uptake of mannitol from the total 2-DG uptake. To investigate the effects of muscle contraction, muscle contraction was induced by electrical stimulation with 5 Hz (1 ms pulse duration, 100 V) for 10 min (SEN-5201, Nihon Koden, Tokyo, Japan).

The subject of the next test is L6-GLUT4myc myotubes. In words: GLUT4 translocation: cell surface GLUT4myc by anti-Myc antibody assay in L6-GLUT4myc myotubes. In kind it is cell-based, rat.
The subject of test [1] is isolated skeletal muscles. In words: 2-DG uptake with 100 nM insulin in isolated muscles from C57BL/6 mice. The arrangement: species or system mouse. To be noted: for 2DOG Trn / IC 2DOG / Raio (2-DG uptake relative to untreated control): isolated muscles, individual muscles #1-3; for 2DOG Trn / IC 2DOG: 2DG 1 mM, incubation 10 min. As to the method:
Arrowheads indicate the characteristic ruffled structure of the polymerized actin and actin-associated surface GLUT4. d GLUT4 translocation activity of 30 μM DS20060511 or 100 nM insulin in the presence of the actin polymerization inhibitor, Latrunculin B, at the indicated concentrations. Values shown are means ± SEM, n = 3. **P < 0.01 vs. 0 nM Latrunculin B by one-way ANOVA followed by Dunnett’s test. e Concentration-dependent insulin-stimulated GLUT4 translocation in L6-GLUT4myc myotubes with or without 30 μM DS20060511 (n = 3). f Concentration-dependent DS20060511-stimulated 2-DG uptake with 100 nM insulin in isolated muscles from C57BL/6 mice (n = 3). Values shown are means ± SEM. ***P < 0.001 by one-way ANOVA followed by Tukey’s test. g Blood glucose levels during ITT in STZ-treated C57BL/6 mice (n = 6–7). Vehicle or indicated dose of DS20060511 was given orally at the same time as 0.1 U kg^−1 insulin injection intraperitoneally. Values shown are means ± SEM. *P < 0.05 vs. vehicle by one-way ANOVA followed by Dunnett’s test. c Scale bar in all panels, 5 μm. Uncropped blots for a and b can be found in Supplementary Fig. 6.
as §1

Where [2] appears, read: HFD, DS20060511 0 μM, Insulin 100 nM.
Setting [3] is: NC, DS20060511 0 μM, Insulin 100 nM.
[4] abbreviates: insulin 100 nM alone (DS20060511 0 μM).
Setting [5] is: HFD, DS20060511 10 μM plus Insulin 100 nM.
Setting [6] is: DS20060511 1 μM + insulin 100 nM.
Where [7] appears, read: DS20060511 10 μM + insulin 100 nM.

“And” between values parts separate entries of the source, which are not always exact repeats. Equal values may be shown once.

With “Insulin: Insulin (Humulin, Eli Lilly) in the in vivo experiments; Insulin solution human (I9278, Sigma–Aldrich) in the in vitro experiments”, the Raio in the test on isolated skeletal muscle (setting [2]) is 1.28 and 1.46 and 1.65 and 1.16 and 0.85; with isolated skeletal muscle (setting [3]) it was 2.15 and 2.48 and 1.82 and 1.55 and 1.68 and 2.28. In addition, the “2DOG Trn” value in the test with isolated skeletal muscle (HFD, DS20060511 0 μM, Insulin 100 nM, incubation time 10 min) is 25.5 µM/min and 29.1 µM/min and 32.9 µM/min and 23.1 µM/min and 14.4 µM/min; in the test on isolated skeletal muscle (setting [2]), 255 nmol/mL and 291 nmol/mL and 329 nmol/mL and 324 nmol/mL and 259 nmol/mL; with isolated skeletal muscle (NC, DS20060511 0 μM, Insulin 100 nM, incubation time 10 min) it was 27.4 µM/min and 29.7 µM/min and 40.3 µM/min and 38.9 µM/min and 44.9 µM/min and 32.9 µM/min; in the test with isolated skeletal muscle (setting [3]), 274 nmol/mL and 297 nmol/mL and 403 nmol/mL and 389 nmol/mL and 449 nmol/mL and 329 nmol/mL; in test [1] (setting [4]), 573 nmol/ml and 57.3 µM/min and 622 nmol/ml and 62.2 µM/min and 629 nmol/ml and 62.9 µM/min. In addition, the “IC 2DOG” value in the test with isolated skeletal muscle (setting [2]) is 163 nmol/g and 186 nmol/g and 216 nmol/g and 214 nmol/g and 174 nmol/g; with isolated skeletal muscle (setting [3]), 192 nmol/g and 210 nmol/g and 264 nmol/g and 259 nmol/g and 303 nmol/g and 223 nmol/g; in test [1] (setting [4]) it was 376 nmol/g and 331 nmol/g and 410 nmol/g. The “A: Abs. (450 nm)” value in the test on L6-GLUT4myc myotubes (Insulin 100 nM) was 0.287 and 0.285 and 0.286. For the same compound, in test [1] (setting [4]), the “Raio (2-DG uptake relative to untreated control)” value was 1.65 and 1.79 and 1.82.
`COc1ccc2c(C)c(C(=O)O)ccc2c1C1C2=C(CC(C)(C)CC2=O)OC2=C1C(=O)CC(C)(C)C2` [DS20060511]: the Raio in the test with isolated skeletal muscle (setting [5]) was 2.30 and 2.20 and 2.00 and 1.46 and 1.88. Also, the “suppression of insulin-induced 2-DG uptake in isolated skeletal muscle” value with isolated skeletal muscle (HFD-fed mice, 10 μM DS20060511, 100 nM insulin) is recorded as “completely restored”. Moreover, the “2DOG Trn” value in the test with isolated skeletal muscle (HFD, DS20060511 10 μM plus Insulin 100 nM, incubation time 10 min) is 45.7 µM/min and 43.8 µM/min and 39.8 µM/min and 37.4 µM/min; with isolated skeletal muscle (setting [5]), 457 nmol/mL and 438 nmol/mL and 436 nmol/mL and 374 nmol/mL; in test [1] (setting [6]), 935 nmol/ml and 93.5 µM/min and 1062 nmol/ml and 106.2 µM/min and 1054 nmol/ml and 105.4 µM/min; in test [1] (setting [7]), 1281 nmol/ml and 128.1 µM/min and 1209 nmol/ml and 120.9 µM/min and 1137 nmol/ml and 113.7 µM/min. Moreover, the “IC 2DOG” value is 292 nmol/g and 276 nmol/g and 268 nmol/g and 283 nmol/g and 257 nmol/g in the test on isolated skeletal muscle (setting [5]); 559 nmol/g and 682 nmol/g and 640 nmol/g in test [1] (setting [6]); 656 nmol/g and 556 nmol/g and 565 nmol/g in test [1] (setting [7]). Moreover, the “A: Abs. (450 nm)” value with L6-GLUT4myc myotubes (DS20060511 0.1 μM, replicates 1-3) is 0.190 (2×) and 0.196. For the same compound, in test [1] (100 nM insulin, isolated skeletal muscles, Fig. 4f), the “2-DG uptake induced by insulin, concomitant DS20060511” value is recorded as “additively increased”. For the same compound, in test [1] (setting [6]), the “Raio (2-DG uptake relative to untreated control)” value was 2.70 and 3.07 and 3.04.

(Values after paper PMC8379256, “A xanthene derivative, DS20060511, attenuates glucose intolerance by inducing skeletal muscle-specific GLUT4 translocation in mice” (Communications Biology, 2021).)
